Test results reported in patent US20240132493A1, “IMIDAZOPYRIDINE DERIVATIVES AS STING AGONISTS” (Fulgent Genetics, Inc., priority 2021, published 2024).

How the values were obtained:
STING [1] = molecular target: T1, STING (Homo sapiens, UniProt Q86WV6, G230A/H232R/R293Q/R71H); test: Western blot analysis of activated STING and its downstream protein phosphorylation in THP-1 cells; format: cell-based; details: 10 μM compound, 3 h, vs DMSO
T1 construct: Human monocyte cell THP-1 were purchased from ATCC (Catalog No. TIB-202); host or cells: THP-1 human monocyte cells
Procedure: The Western blot analysis of activated STING and its downstream protein phosphorylation in human monocyte THP-1 cells
(§1) Human monocyte cell THP-1 were purchased from ATCC (Catalog No. TIB-202). The complete growth medium was made with ATCC-formulated RPMI-1640 Medium (Catalog No. 30-2001) and supplemented with 2-mercaptoethanol to a final concentration of 0.05 mM, and fetal bovine serum (FBS) to a final concentration of 10%.
After the THP-1 cells were treated with the 10 μM invented compounds for 3 hours, the cells were lysed by RIPA buffer, followed by washing with PBS. The total protein concentration was measured by BCA protein assay. The 10 μg protein sample was loaded after mixing with SDS-PAGE protein loading buffer, separated on SDS-PAGE and transferred to a PVDF membrane using the semi-dry transfer apparatus. After blocking with 5% BSA for 1 hr, the membrane was incubated with 1st antibodies overnight at 4° C., followed by incubation with HRP-conjugated 2nd antibodies (Catalog No. WBULS0100 from Millipore) for another 1 hr at room temperature. Lastly, the immunocomplexes were detected via the Bio-Rad ChemiDoc Touch Imaging System. Antibodies for western blotting were purchased from Cell Signaling Technology, catalog numbers 19781 (p-STING Ser366), 13647 (STING), 5483 (p-TBK1 Ser 172), 3504 (TBK1), 4947 (p-IRF3 Ser396), 4302 (IRF3) and 7074 (HRP-linked anti-rabbit IgG).

STING [2] = molecular target: T1, STING; test: qPCR analysis of mRNA levels of cytokine gene expression (IFNB, ISG15, CXCL10) in THP-1 cells; format: cell-based; details: 10 μM compound, 6 h, vs DMSO
Procedure: as §1, with “qPCR analysis of mRNA levels of cytokine gene expression in THP-1 cell Human” for “Human”
To evaluate the agonistic effects of chemicals on STING, the gene expression of IFNB, ISG15 and CXCL10 in human monocyte THP-1 cells was measured by real time qPCR. After the treatment of 10 μM Compounds for 6 hrs, cells were respectively lysed by TRIzol reagents (from Invitrogen). Total RNA was extracted according to the manufacturer's instruction. mRNA concentration was measured via 3rd generation NanoDrop machine. 1 μg of mRNA was used for the reverse transcription reaction with random primer, dNTP mix, RNase inhibitor and M-MuLV Reverse Transcriptase. SYBR green supermix and hot start DNA polymerase were used in qPCR with TBP gene as an internal control. Gene-specific primers were purchase from Integrated DNA Technologies.

[3] = system: CT-26 mouse colon adenocarcinoma; test: Antitumor efficacy in s.c. CT-26 mouse colon adenocarcinoma model; format: in vivo, BALB/c mice
Procedure: Evaluation of Antitumor Efficacy in CT-26 Mouse Model
Six- to eight-week-old male BALB/c mice of 18-20 g were purchased from Taconic Biosciences (La Jolla, CA). Mouse colon carcinoma CT-26 (from ATCC) cells were maintained in RPMI-1640 medium supplemented with 10% fetal bovine serum (FBS), 100 U/ml penicillin and 100 μg/ml streptomycin, and incubated at 37° C. and 5% CO2. The cells growing in an exponential growth phase were harvested and counted for tumor inoculation. Each mouse was inoculated subcutaneously at the left and the right flank with 5×10^4 CT-26 tumor cells in 0.1 ml of serum-free medium for tumor development.
Mice were randomized into study groups with 8 mice/group when average tumor volume was ˜70 mm^3. […] Tumor size and body weight were measured twice per week throughout the study. Tumor volume was calculated by applying length and width caliper measurements to the following formula: TV=0.5*L*W^2. Percent treated/control (T/C) value was calculated as 100×ΔT/ΔC (when ΔT>0) or 100×ΔT/Tsd (when ΔT<0) where ΔT and ΔC are the changes in the mean tumor volumes between the indicated day and the first day of measurement for the treatment and control groups, respectively. […] Statistical analyses of the differences in tumor volume among the groups were evaluated using a one-way ANOVA. […]

[4] = Tolerability and body weight in CT-26 mouse model; format: in vivo; details: 3×1.5 mg/kg IP, BALB/c mice bearing CT-26
Procedure: Mice were randomized into study groups with 8 mice/group when average tumor volume was ˜70 mm^3. On day 1, 4 and 8 mice were dosed with vehicle or 1.5 mg/kg Cpd 4 (Example 4) in 5% DMSO, 45% PEG400, and […] formulation by intraperitoneal injection. Tumor size and body weight were measured twice per week throughout the study. Tumor volume was calculated by applying length and width caliper measurements to the following formula: TV=0.5*L*W^2. Percent treated/control (T/C) value was calculated as 100×ΔT/ΔC (when ΔT>0) or 100×ΔT/Tsd (when ΔT<0) where ΔT and ΔC are the changes in the mean tumor volumes between the indicated day and the first day of measurement for the treatment and control groups, respectively. Tsd is the first day mean tumor volume of the treated group. Statistical analyses of the differences in tumor volume among the groups were evaluated using a one-way ANOVA. All data were analyzed using GraphPad Prism 8 (GraphPad Software, San Diego, CA). p<0.05 was considered to be statistically significant.

T1 sequence (Q86WV6 whole entry R71H/G230A/H232R/R293Q): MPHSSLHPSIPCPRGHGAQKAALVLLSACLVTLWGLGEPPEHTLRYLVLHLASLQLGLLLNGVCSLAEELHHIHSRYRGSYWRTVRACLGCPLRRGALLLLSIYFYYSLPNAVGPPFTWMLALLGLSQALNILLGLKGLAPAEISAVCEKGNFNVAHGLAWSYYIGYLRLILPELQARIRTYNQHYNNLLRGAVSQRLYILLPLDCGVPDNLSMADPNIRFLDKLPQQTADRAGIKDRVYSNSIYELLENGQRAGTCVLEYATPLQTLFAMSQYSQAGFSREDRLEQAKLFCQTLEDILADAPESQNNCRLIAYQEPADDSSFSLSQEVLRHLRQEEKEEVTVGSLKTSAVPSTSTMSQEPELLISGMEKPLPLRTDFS

SMILES	p-IRF3 level (STING [1])	p-TBK1 level (STING [1])	phosphorylated STING (p-STING) level (STING [1])	mRNA level of CXCL10 (STING [2])	mRNA level of IFNB (STING [2])	mRNA level of ISG15 (STING [2])	tumor growth rate of treated/control (T/C) ([3]; 3×1.5 mg/kg IP (day 1, 4, 8), day 12, s.c. CT-26 in BALB/c mice)	antitumor efficacy (tumor volume) ([3]; 3×1.5 mg/kg IP, s.c. CT-26 in BALB/c mice)	body weight [4]	tolerability [4]
CCn1nc(C)cc1C(=O)Nc1nc2cc(C(N)=O)cnc2n1C/C=C/Cn1c(NC(=O)c2cc(C)nn2CC)nc2cc(C(N)=O)cc(OCCCN3CCOCC3)c21 [Example 4, (E)-3-(4-(5-carbamoyl-2-(1-ethyl-3-methyl-1H-pyrazole-5-carboxamido)-7-(3-morpholinopropoxy)-1H-benzo[d]imidazol-1-yl)but-2-en-1-yl)-2-(l-ethyl-3-methyl-1H-pyrazole-5-carboxamido)-3H-imidazo[4,5-b]pyridine-6-carboxamide]	higher levels	higher levels	higher levels	significantly upregulated	significantly upregulated	significantly upregulated	19%	highly potent	no bodyweight loss	well-tolerated
CCn1nc(C)cc1C(=O)/N=c1\n(C)c2cc(C(N)=O)cnc2n1C/C=C/Cn1/c(=N/C(=O)c2cc(C)nn2CC)n(C)c2cc(C(N)=O)cc(OCCCN3CCOCC3)c21 [Example 6, (E)-3-((E)-4-((E)-5-carbamoyl-2-((1-ethyl-3-methyl-1H-pyrazole-5-carbonyl)imino)-3-methyl-7-(3-morpholinopropoxy)-2,3-dihydro-1H-benzo[d]imidazol-1-yl)but-2-en-1-yl)-2-((1-ethyl-3-methyl-1H-pyrazole-5-carbonyl)imino)-1-methyl-2,3-dihydro-1H-imidazo[4,5-b]pyridine-6-carboxamide]	–	–	–	significantly upregulated	significantly upregulated	significantly upregulated	–	–	–	–
CCn1nc(C)cc1C(=O)Nc1nc2cc(C(N)=O)cnc2n1C/C=C/Cn1c(NC(=O)c2cc(C)nn2CC)nc2cc(C(N)=O)cc(OCCCN3CCNCC3)c21 [Example 8, (E)-3-(4-(5-carbamoyl-2-(1-ethyl-3-methyl-1H-pyrazole-5-carboxamido)-7-(3-(piperazin-1-yl)propoxy)-1H-benzo[d]imidazol-1-yl)but-2-en-1-yl)-2-(1-ethyl-3-methyl-1H-pyrazole-5-carboxamido)-3H-imidazo[4,5-b]pyridine-6-carboxamide]	higher levels	higher levels	higher levels	significantly upregulated	significantly upregulated	significantly upregulated	–	–	–	–
CCn1nc(C)cc1C(=O)Nc1nc2cc(C(N)=O)cnc2n1C/C=C/Cn1c(NC(=O)c2cc(C)nn2CC)nc2cc(C(N)=O)cc(OCCN3CCOCC3)c21 [Example 10, (E)-3-(4-(5-carbamoyl-2-(1-ethyl-3-methyl-1H-pyrazole-5-carboxamido)-7-(2-morpholinoethoxy)-1H-benzo[d]imidazol-1-yl)but-2-en-1-yl)-2-(1-ethyl-3-methyl-1H-pyrazole-5-carboxamido)-3H-imidazo[4,5-b]pyridine-6-carboxamide]	higher levels	higher levels	higher levels	significantly upregulated	significantly upregulated	significantly upregulated	–	–	–	–
